# Results as given in BindingDB's records for PubMed 38340508 (Biomedical Research Foundation of the Academy of Athens).
# Assay: Inhibition of MYC in chicken embryonic fibroblasts assessed as reduction in transformed cell foci with repeated addition of compounds every second day and measured after 1 to 3 weeks by crystal violet staining based analysis
compound,measurement,value
Cc1cc(N2CCCCC2)nc2ccc(Cc3ccc4nc(N5CCCCC5)cc(C)c4c3)cc12,IC50,3 µM
